Where “and” joins values, the source holds several entries; their conditions need not be identical. Equal values may be shown once. Read-outs that look alike come from different tables or passages of the source.

Data set [1] can be described thus: Intrinsic (maximum) solubility in water at pH 1.5. To be noted: 25 °C, pH 1.5, simulated gastric fluid. The data set is classed as physicochemical. The protocol:
The pH conditions were chosen to ensure that the solubility of the unionised species was estimated. […] Lea & Febiger/Philadelphia. […] […] The solvent (9.9 mL) was then added to the test tube. […] The test tube was sonicated for 15 minutes and centrifuged for 10 minutes (3000 g at 25° C.). An aliquot was filtered (Minisart 0.45 μm filter, Satorius) and diluted with HPLC mobile phase, then assayed. The tube was stored carefully in a 25° C. water bath after sampling and the remaining suspension was again sonicated and the process repeated 7 times at four hourly intervals. In these assays, standard curves were prepared by directly dissolving the esters in mobile phase. Concentrations for standard curves ranged from 1-50 μg/mL for all compounds. Furthermore, a manual injector (Waters Model U6K) was used (20 μL sample loop) which ensured that 20 μL was consistently injected onto the column and precluded the need for an internal standard.

Data set [2] is described as follows: In vitro non-enzymatic hydrolysis in Krebs-Henseleit buffer. The data set is classed as physicochemical. Conditions: for Hydrolysis rate constant (k): pH 7.4, 25° C., n=5; for half-life: pH 7.4. As to the method: These experiments were carried out both in Krebs-Henseleit buffer containing either no protein or 2% w/v BSA (bovine serum albumin, fraction V, Sigma) at pH 7.4 and 25±1° C.
Solutions of the derivatives in Krebs buffer (10 mL) was prepared in siliconised glass tubes. Each solution was sonicated for 5 minutes and centrifuged for 5 minutes (3000 g) at 25° C. to ensure maximum dissolution and to sediment any undissolved precipitate. About 7.5 mL of the supernatant was then transferred to a clean siliconised test tube and a 100 μL aliquot was removed and assayed. […] The rate of non-enzymatic hydrolysis (k) for each derivative was then estimated using the following equation: […]
where C1 is the concentration of the ester at any time (t), and C0 is the concentration of the ester at time zero. The half-life (t½) was determined using the formula: […]

In data set [3] the test system is human platelet rich plasma. Description: Platelet aggregation induced by arachidonic acid. The data set is classed as cell-based. To be noted: compound 600 µM, 37° C., arachidonic acid 200 µM. The protocol:
Platelet aggregation studies were carried out using a single channel Lumiaggregometer (Chrono-Log Company, Haverton, Pa.) at 37° C. using human platelet-rich and platelet-poor plasma. Platelet-rich plasma (PRP) with a platelet concentration of […] (measured with a Coulter counter) was prepared by centrifuging 3.8% citrated […] (1:9) at 1,500 rpm using a (Beckman) benchtop centrifuge at room temperature for 15 minutes. Platelet-poor plasma (PPP) was prepared by further centrifuging residual blood from platelet-rich plasma at 3,000 rpm for 30 minutes. Platelet-poor plasma was also confirmed b y Coulter counting for platelet content.
Platelet aggregation studies were preceded by pipetting 0.4 mL platelet-rich plasma into a stirred aggregometer tube and calibrate to 90% of recorder. Platelet-poor plasma was set to calibrate at 10% of recorder. Platelet aggregation was initiated by the addition of a arachidonic acid (Sigma) or ADP (Sigma).
10 mM solutions of each compound (TABLE 6) were prepared in 1 mL of normal saline solution (containing 4% BSA) before use. An aliquot (400 μL) of platelet-rich plasma was pipetted into a stirred aggregometer tube at 37° C. and 30 μL of test sample added simultaneously. This mixture was preincubated for varying period (3 to 45 minutes), then arachidonic acid (AA) was added (final conc.=200 μM) to initiate platelet aggregation. If no aggregation occurred, 20 μM ADP was added to confirm the vitality of the platelets (if the platelets are vital, ADP will induce this AA-test sample-plasma mixture to aggregate). This procedure is necessary to investigate whether the non-aggregation phenomenon is due to drug inhibition or simply due to inviable platelets (unable to respond to AA). The degree of aggregation was measure by calculating the area under the turbidimetric response curve (AUC).

Data set [4] concerns the target T1, BSA (bovine serum albumin) (Bos taurus, UniProt P02769).
T1 construct: BSA (bovine serum albumin, fraction V, Sigma); purchased Sigma; host or cells: bovine serum (fraction V)
The data set is described as follows: Protein binding by ultrafiltration in 2% BSA Krebs buffer. The data set is classed as in vitro ADME. To be noted: 2% BSA Krebs-Henseleit buffer pH 7.4, 37° C.; slope of Scatchard plot. As to the method:
These experiments were carried out in Krebs-Henseleit buffer containing 2% w/v BSA (pH 7.4) and incubated at 37° C. for 30 minutes.
A known concentration of the ethanolic (≲1%) aspirin analogue or diflunisal ester stock solution was added to the 2% BSA Krebs solution to make final concentrations of 125 μM, 250 μM and 500 μM.
The unbound fraction (fu) of parent drug and its hydrolysis product were investigated using ultra-filtration: A 1.0 mL aliquot sample (in triplicate) was placed in a ultrafiltration tube (MPS-1, micro-partition system, Amicon) and centrifuged at 3000 g for 10 minutes. The ultra-filtrate was then assayed for parent drug and its hydrolysis product by HPLC.
To eliminate possible errors caused by hydrolysis, identical samples were placed in normal tubes and subjected to the same procedure. This control group (also in triplicate) was used to adjust for the percentage of hydrolysis in the ultra-filtrate under the experimental conditions.
The fu was determined as the ratio of the free concentration to total concentration of solutes. The binding constant (K) was determined from the slope of a Scatchard plot using following equation:
[Db]/[D]=−K[Db]vK[Pt] (3)
where [Db] is the concentration of bound drug, [D] is the concentration of drug, [Pt] is the concentration of total protein, and v is the number of independent binding sites available. This equation is plotted as the ratio [Db]/[D] versus [Db] and in this way the binding constant (K) is determined from the slope while vK[Pt] is determined from the intercept (Martin, 1983).

T1 sequence (P02769 25-607): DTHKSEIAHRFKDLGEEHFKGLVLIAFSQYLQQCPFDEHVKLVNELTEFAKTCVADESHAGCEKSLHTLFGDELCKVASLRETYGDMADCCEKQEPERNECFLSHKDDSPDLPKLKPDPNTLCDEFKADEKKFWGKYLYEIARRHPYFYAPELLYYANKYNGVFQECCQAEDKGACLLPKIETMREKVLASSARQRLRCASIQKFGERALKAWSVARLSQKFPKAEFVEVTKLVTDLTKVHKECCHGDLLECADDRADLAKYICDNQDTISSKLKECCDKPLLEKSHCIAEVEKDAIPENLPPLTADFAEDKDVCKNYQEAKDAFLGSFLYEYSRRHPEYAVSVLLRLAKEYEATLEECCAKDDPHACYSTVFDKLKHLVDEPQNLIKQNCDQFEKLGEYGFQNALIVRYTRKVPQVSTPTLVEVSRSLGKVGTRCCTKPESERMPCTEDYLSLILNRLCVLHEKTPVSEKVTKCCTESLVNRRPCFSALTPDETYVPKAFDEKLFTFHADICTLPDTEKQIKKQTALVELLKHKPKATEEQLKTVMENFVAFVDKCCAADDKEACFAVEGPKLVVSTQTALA

Regarding `CCCCCCCC(=O)Oc1ccccc1C(=O)O` [Compound C8SA, n-octanoylsalicylic acid], the solubility in data set [1] was 2 µg/mL and 8 µM. The “Hydrolysis rate constant (k)” value in data set [2] (Krebs-Henseleit buffer 0% BSA, U = Undetectable) is recorded as 0.0051 ± 0.0031 hour^1; in data set [2] (Krebs-Henseleit buffer 2% BSA), 0.0010 ± 0.0004 hour^1. For the same compound, the half-life was around 30 days in data set [2] (Krebs-Henseleit buffer with 2% w/v BSA, 2% BSA Krebs buffer, read-out: Half-life (converted)); 28.9 days in data set [2] (bovine, Krebs-Henseleit buffer with 2% w/v BSA, read-out: Half life (t1/2) (converted)); 5.66 days in data set [2] (protein-free Krebs-Henseleit buffer, Krebs-Henseleit buffer 0% BSA, first half life, t1/2=0.693/k, U = Undetectable, read-out: Half life (t1/2) (converted)). The “Platelet Aggregation (% of control)” value in data set [3] (preincubation 3 minutes) was 95.4 ± 2.1 % of control; in data set [3] (preincubation 5 minutes), 92.4 ± 0.1 % of control; in data set [3] (preincubation 8 minutes), 87.3 ± 3.3 % of control; in data set [3] (preincubation 10 minutes), 67.5 ± 2.7 % of control; in data set [3] (preincubation 12 minutes), 27.3 ± 0.2 % of control; in data set [3] (preincubation 15 minutes), 0 % of control. Also, the “Platelet Aggregation (% of control)” value in data set [3] (preincubation 20 minutes), in data set [3] (preincubation 25 minutes) and in data set [3] (preincubation 45 minutes) was 0 % of control in each case. The “Protein binding constant (K)” value in data set [4] worked out at 13978 L/mol.
